The values below come from ChEMBL document CHEMBL5584239, “Discovery of novel quinoline scaffold selective estrogen receptor degraders (SERDs) for treatment of ER positive breast cancer with enhanced antiproliferative bioactivity through immunogenic cell death (ICD) effects” (Eur J Med Chem, 2024).

The source made the active and inactive calls.

Data set [1] addresses T1, Estrogen receptor (Homo sapiens) (UniProt P03372).
T1 sequence (whole entry): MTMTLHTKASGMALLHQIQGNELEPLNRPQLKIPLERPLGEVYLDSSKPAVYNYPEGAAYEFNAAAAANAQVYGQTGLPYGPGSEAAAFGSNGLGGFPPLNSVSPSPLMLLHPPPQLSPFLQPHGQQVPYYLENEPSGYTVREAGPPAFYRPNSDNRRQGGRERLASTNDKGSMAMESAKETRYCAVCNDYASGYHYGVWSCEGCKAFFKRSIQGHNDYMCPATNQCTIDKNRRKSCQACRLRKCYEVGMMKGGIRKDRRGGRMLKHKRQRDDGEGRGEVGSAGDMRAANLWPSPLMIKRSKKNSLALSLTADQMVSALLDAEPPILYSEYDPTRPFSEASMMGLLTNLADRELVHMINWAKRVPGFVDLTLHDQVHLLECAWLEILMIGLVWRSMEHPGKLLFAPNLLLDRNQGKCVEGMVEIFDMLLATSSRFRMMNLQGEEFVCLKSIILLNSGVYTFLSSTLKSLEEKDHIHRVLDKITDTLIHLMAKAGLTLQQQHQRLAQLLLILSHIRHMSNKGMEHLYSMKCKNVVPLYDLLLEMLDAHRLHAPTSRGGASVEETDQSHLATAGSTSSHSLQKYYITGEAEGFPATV
The data set can be described thus: Induction of estrogen receptor degradation in human MCF7 cells at 10 uM by fluorescence microscopy. It counts as cell-based.

The test system of data set [2] is MCF7. Description: Induction of immunogenic cell death in human MCF7 cells assessed as CRT translocation at 10 uM by FITC staining based flow cytometry. It counts as functional. (Flow cytometry measures light scatter and fluorescence of single cells or particles in a stream.)
Data set [3] has as its target T1, Estrogen receptor (Homo sapiens). Description: Induction of estrogen receptor degradation in estradiol-stimulated human MCF7 cells assessed as decrease in TFF1 mRNA level incubated for 24 hrs by RT-qPCR analysis. Format: cell-based. To be noted: dose 1-10 µM.
Data set [4] relates to MCF7. The data set can be described thus: Induction of endoplasmic reticulum stress effect in human MCF7 cells assessed as change in CHOP level at 10 uM incubated for 3 to 24 hrs by Western blot analysis. It counts as functional, cell-based. The note with it: time 3-24 hrs. (In general: In western blotting, separated proteins are transferred to a membrane and probed.)
Data set [5] in a line: AUC (0 to t) in rat at 5 mg/kg, iv measured for 1 to 24 hrs by LC-MS analysis. Format: ADME, organism-based. To be noted: in vivo, time 1-24 hrs.
The target in data set [6] is T1, Estrogen receptor (Homo sapiens). Description: Induction of estrogen receptor degradation in estradiol-stimulated human MCF7 cells assessed as decrease in PGR mRNA level incubated for 24 hrs by RT-qPCR analysis. Format: cell-based. The note with it: dose 1-10 µM. (In general: In qPCR the cycle at which signal appears reflects the starting amount.)
Data set [7] has the same target. Description: Induction of estrogen receptor degradation in estradiol-stimulated human MCF7 cells assessed as decrease in GREB1 mRNA level incubated for 24 hrs by RT-qPCR analysis. To be noted: dose 1-10 µM. It counts as cell-based.
The test system of data set [8] is MCF7. The data set can be described thus: Synergistic antiproliferative activity against human MCF7 cells at 0.1 to 10000 nM incubated for 5 days in presence of Ribociclib by MTT assay. It counts as functional, cell-based. To be noted: dose 0.1-10000 nM, time 5.0 day.
Data set [9] in a line: Toxicity in nude mouse model xenografted with human MCF7 cells assessed as morphological change in spleen at 60 mg/kg, po administered daily via gavage for 30 days by H and E staining based analysis. It counts as organism-based. To be noted: in vivo, 720 h, time 30 day.
Data set [10] is described as follows: Toxicity in nude mouse model xenografted with human MCF7 cells assessed as morphological change in heart at 60 mg/kg, po administered daily via gavage for 30 days by H and E staining based analysis. The note with it: in vivo, 720 h, time 30 day. Format: organism-based.
Data set [11] can be described thus: Half life in rat at 5 mg/kg, iv measured for 1 to 24 hrs by LC-MS analysis. Format: ADME, organism-based. The note with it: in vivo, time 1-24 hrs.
A short description of data set [12]: Cmax in rat at 20 mg/kg, po measured for 1 to 24 hrs by LC-MS analysis. It counts as ADME, organism-based. To be noted: in vivo, time 1-24 hrs.
For data set [13], the system named is MCF7. Description: Induction of immunogenic cell death in human MCF7 cells assessed as HMGB1 release from nucleus at 10 uM by Western blot analysis. Format: functional, cell-based.
The nature of data set [14]: AUC (0 to infinity) in rat at 20 mg/kg, po measured for 1 to 24 hrs by LC-MS analysis. Format: ADME, organism-based. The note with it: in vivo, time 1-24 hrs.
Data set [15] deals with MCF7. Description: Induction of endoplasmic reticulum stress effect in human MCF7 cells assessed as change in ATF4 level at 10 uM incubated for 3 to 24 hrs by Western blot analysis. It counts as functional, cell-based. The note with it: time 3-24 hrs.
Data set [16] addresses T1, Estrogen receptor (Homo sapiens). The data set can be described thus: Induction of estrogen receptor degradation in MG-132-treated human MCF7 cells at 10 uM incubated for 4 to 6 hrs by Western blot analysis. Format: cell-based. To be noted: time 4-6 hrs.
A short description of data set [17]: Oral bioavailability in rat at 20 mg/kg measured for 1 to 24 hrs by LC-MS analysis. It counts as ADME, organism-based. The note with it: in vivo, time 1-24 hrs.
Data set [18] concerns MCF7. Description: Induction of immunogenic cell death in human MCF7 cells assessed as HSP90 exposure at 10 uM by Western blot analysis. It counts as functional, cell-based.
The target in data set [19] is T1, Estrogen receptor (Homo sapiens). Description: Induction of estrogen receptor degradation in human MCF7 cells expressing ERE-luciferase at 10 uM incubated for 24 hrs by luminescence based analysis. It counts as cell-based.
A short description of data set [20]: Toxicity in nude mouse model xenografted with human MCF7 cells assessed as body weight loss at 60 mg/kg, po administered daily via gavage for 30 days. It counts as organism-based. The note with it: in vivo, 720 h, time 30 day.
Data set [21] can be described thus: C0 in rat at 5 mg/kg, iv measured for 1 to 24 hrs by LC-MS analysis. It counts as ADME, organism-based. The note with it: in vivo, time 1-24 hrs.
Data set [22] deals with MCF7. The data set can be described thus: Induction of endoplasmic reticulum stress effect in human MCF7 cells assessed as change in pEIF-2alpha level at 10 uM incubated for 3 to 24 hrs by Western blot analysis. Format: functional, cell-based. The note with it: time 3-24 hrs.
The nature of data set [23]: Clearance in rat at 5 mg/kg, iv measured for 1 to 24 hrs by LC-MS analysis. Format: ADME, organism-based. To be noted: in vivo, time 1-24 hrs.
For data set [24], the system named is MCF7. The data set can be described thus: Induction of immunogenic cell death in human MCF7 cells assessed as CRT translocation at 10 uM by Western blot analysis. Format: functional, cell-based.

Regarding `CCc1ccccc1C(=O)c1cnc2cc(O)ccc2c1Oc1ccc(/C=C/C(=O)O)cc1`, the result (in data set [1]; with MCF7 [2]; in the data set on MCF7 [4]; in the data set with MCF7 [8]; in the data set with MCF7 [13]; with MCF7 [15]) was Active. The result (in the data set on MCF7 [18]; in data set [19]; in the data set with MCF7 [22]; with MCF7 [24]) was Active. Besides, the Activity entry is “Dose-Dependent Effect” in data set [3]; “Dose-Dependent Effect” in [6]; “Dose-Dependent Effect” in [7]; “Non-Toxic” in data set [9]; “Non-Toxic” in [10]; “Non-Toxic” in data set [20]. Also, in [5], the AUC(0-t) worked out at 3.05 µg·h/mL. In data set [11], this molecule showed a half-life of 51.8 min. In [12], the Cmax worked out at 0.501 µg/mL. In data set [14], this molecule returned an AUC(0-inf) of 0.649 µg·h/mL. Further, in data set [16], the outcome was inactive. The bioavailability in data set [17] came out at 5.32%. Besides, in [21], the C0 was determined as 31.3 µg/mL. This molecule also had a clearance in data set [23] of 1.67 L/h/kg.

What is called AUC(0-t) is the area under the concentration-time curve up to a stated or last time point. The term half-life denotes the time needed for the level to fall by half in the phase considered. High values mean slow loss, low ones fast loss. By Cmax is commonly meant the highest concentration seen after dosing. A word on the AUC(0-inf): it is total exposure, with the tail of the curve extrapolated. Read a high AUC(0-inf) as high exposure. The term bioavailability denotes the share of a dose that reaches the circulation, judged against a reference dose that is usually intravenous. A high value points to much systemic uptake. A word on the clearance: it is the rate of elimination divided by the concentration. Low readings indicate inefficient removal, high ones efficient removal.
